A word on the pIC50: it is −log10 of the IC50, conventionally taken in molar units. A lower pIC50 goes with a large IC50.

These results are taken from patent US7388070B1, “Structure-based approach to design of inhibitors of protein-processivity factor interactions” (priority 1999, dated 2008).

The nature of series [1]: CD spectroscopy, helicity from ellipticity at 222 nm. The class given is physicochemical. The following applies: calculated from ellipticity values at 222 nm from CD measurements. As for the experimental part: CD spectroscopy was performed in order to determine if the peptides with the least inhibitory activity were altered structurally. […] Therefore, the lack of inhibitory activity of these two mutants may be at least in part due to alterations in structure.
Lyophilized peptides were resuspended in 10 mM KF and adjusted to pH 8 with KOH. Spectra were recorded at the indicated peptide concentrations with an Aviv 62DS SpectroPolarimeter at 0° C. in a 0.1 cm pathlength cuvette. Wavelength scans were recorded at 1 nm intervals with a 5 second averaging time, and 5 to 10 scans were averaged. Peptide concentrations were determined by quantitative amino acid analysis. Unfolding curves were obtained by monitoring mean residue ellipticity at 222 nm as a function of the concentration of guanidine-HCl and temperature.

Series [2] addresses T1, HSV Pol and UL42 (Human herpesvirus 1, UniProt P10226).
T1 construct: made in house; host or cells: insect cells infected with recombinant baculoviruses
Kind of series: Inhibition of UL42-mediated long-chain DNA synthesis (polymerase assay, poly(dA)/oligo(dT) primer/template). The class given is biochemical. An excerpt:
To perform structure-activity studies, “alanine scan” mutants of peptide E, in which each non-alanine residue was individually converted to an alanine, were synthesized and tested for their ability to inhibit long-chain DNA synthesis by Pol and UTL42. A poly(dA)/oligo(dT15) template/primer was employed. On this primer/template, Pol alone adds only one or two bases, but when UL42 is present, longer DNA products are formed. DNA products greater than 18 bases were quantified at varying peptide concentrations and expressed as a percentage of products formed by Pol/UL42 in the presence of vehicle control.
Reaction mixtures contained 50 mM Tris-Cl (pH 7.6), 100 mM (NH4)2SO4, 3 mM MgCl2, 0.1 mM EDTA, 1 mM dithiothreitol, 0.1 μg BSA, 4% glycerol, 0.25 μg of poly(dA)-oligo(dT) primer/template, […] [^32P]-TTP (5 Ci/mMol), 100 fmol of HSV Pol, 200 fmol of UL42 and varying concentrations of peptide inhibitors in a final volume of 25 μL. Reactions were carried out at 37° C. for 5 to 10 minutes. Reactions were stopped by placing them on ice and adding 5 μL of alkaline loading buffer (2 mM EDTA, 50 mM NaOH, 2.5% glycerol, 0.025% bromcresol green) and were then loaded onto a 4% alkaline agarose gel. Gels were dried overnight and used to expose film and phosphoresence screens. Because Pol alone added only 1-2 nucleotides to the 15 base primer, newly synthesized DNA larger than 18 bases was defined as long-chain and quantified using a Molecular Dynamics Phosphorimager.

pIC50: −log10 of the molar value. A value given as a limit tells only on which side of the number the result lay.

T1 sequence (P10226 whole entry): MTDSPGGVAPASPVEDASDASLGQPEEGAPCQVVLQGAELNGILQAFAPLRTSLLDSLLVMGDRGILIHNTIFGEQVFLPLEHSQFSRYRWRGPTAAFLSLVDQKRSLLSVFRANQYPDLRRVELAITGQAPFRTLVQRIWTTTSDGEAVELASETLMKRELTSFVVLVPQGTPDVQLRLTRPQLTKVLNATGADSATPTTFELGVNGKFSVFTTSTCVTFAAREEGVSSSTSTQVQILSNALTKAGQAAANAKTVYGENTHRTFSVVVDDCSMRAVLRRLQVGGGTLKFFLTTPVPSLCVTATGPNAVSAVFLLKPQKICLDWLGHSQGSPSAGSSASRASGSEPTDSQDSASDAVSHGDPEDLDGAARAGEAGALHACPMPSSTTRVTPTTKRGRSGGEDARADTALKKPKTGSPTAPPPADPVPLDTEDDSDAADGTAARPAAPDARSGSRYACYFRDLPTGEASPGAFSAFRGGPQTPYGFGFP

For `CSCC[C@H](NC(=O)[C@H](CCCNC(=N)N)NC(=O)[C@H](CCCNC(=N)N)NC(=O)[C@@H](NC(=O)[C@H](CCC(=O)O)NC(=O)[C@H](CCC(=O)O)NC(=O)[C@H](C)NC(=O)[C@@H](NC(=O)[C@H](C)NC(=O)CNC(=O)[C@H](C)NC(=O)CNC(=O)[C@@H](NC(=O)[C@H](C)NC(=O)CNC(=O)[C@H](Cc1ccccc1)NC(=O)CNC(=O)[C@H](C)NC(=O)[C@H](C)NC(=O)[C@H](CCCNC(=N)N)NC(=O)[C@H](CC(C)C)NC(=O)[C@H](CCCNC(=N)N)NC(=O)[C@H](C)NC(=O)[C@H](C)NC(=O)[C@@H](NC(=O)[C@H](CC(=O)O)NC(=O)[C@H](CC(=O)O)NC(C)=O)C(C)C)C(C)C)[C@@H](C)O)[C@@H](C)O)C(=O)N[C@@H](CC(C)C)C(=O)N[C@@H](Cc1c[nH]cn1)C(=O)N[C@@H](CCCNC(=N)N)C(=O)N[C@@H](C)C(=O)N[C@@H](Cc1ccccc1)C(=O)N[C@@H](CC(=O)O)C(=O)N[C@H](C(=O)N[C@@H](CC(C)C)C(=O)N[C@@H](C)C(=O)O)[C@@H](C)O` [Peptide A], in series [1], the “% Helicity” value is recorded as 20%.
`CSCC[C@H](NC(=O)[C@H](CCCNC(=N)N)NC(=O)[C@H](CCCNC(=N)N)NC(=O)[C@@H](NC(=O)[C@H](CCC(=O)O)NC(=O)[C@H](C)NC(=O)[C@H](C)NC(=O)[C@@H](NC(=O)[C@H](C)N)[C@@H](C)O)[C@@H](C)O)C(=O)N[C@@H](CC(C)C)C(=O)N[C@@H](Cc1c[nH]cn1)C(=O)N[C@@H](CCCNC(=N)N)C(=O)N[C@@H](C)C(=O)N[C@@H](Cc1ccccc1)C(=O)N[C@@H](CC(=O)O)C(=O)N[C@H](C(=O)N[C@@H](CC(C)C)C(=O)N[C@@H](C)C(=O)O)[C@@H](C)O` [Peptide E22A] gave a pIC50 in series [2] of less than 4.00.
`CSCC[C@H](NC(=O)[C@H](CCCNC(=N)N)NC(=O)[C@H](CCCNC(=N)N)NC(=O)[C@@H](NC(=O)[C@H](CCC(=O)O)NC(=O)[C@H](CCC(=O)O)NC(=O)[C@H](C)NC(=O)[C@@H](NC(=O)[C@H](C)NC(C)=O)[C@@H](C)O)[C@@H](C)O)C(=O)N[C@@H](CC(C)C)C(=O)N[C@@H](Cc1c[nH]cn1)C(=O)N[C@@H](CCCNC(=N)N)C(=O)N[C@@H](C)C(=O)N[C@@H](C)C(=O)N[C@@H](CC(=O)O)C(=O)N[C@H](C(=O)N[C@@H](CC(C)C)C(=O)N[C@@H](C)C(N)=O)[C@@H](C)O` [Peptide F32A] had a pIC50 in series [2] of less than 4.00. Moreover, the “% Helicity” value in series [1] was 28%.
For `CSCC[C@H](NC(=O)[C@H](CCCNC(=N)N)NC(=O)[C@H](CCCNC(=N)N)NC(=O)[C@@H](NC(=O)[C@H](CCC(=O)O)NC(=O)[C@H](CCC(=O)O)NC(=O)[C@H](C)NC(=O)[C@H](C)NC(=O)[C@H](C)NC(C)=O)[C@@H](C)O)C(=O)N[C@@H](CC(C)C)C(=O)N[C@@H](Cc1c[nH]cn1)C(=O)N[C@@H](CCCNC(=N)N)C(=O)N[C@@H](C)C(=O)N[C@@H](Cc1ccccc1)C(=O)N[C@@H](CC(=O)O)C(=O)N[C@H](C(=O)N[C@@H](CC(C)C)C(=O)N[C@@H](C)C(N)=O)[C@@H](C)O` [Peptide T20A], the negative logarithm of the IC50 (pIC50) in series [2] was less than 4.00. Also, the “% Helicity” value in series [1] is given as 16%.
“Ac-ATAEETRRALHRAFDTLA-NH2 (N-terminus and C-terminus assumed) [Peptide M27A]” showed a pIC50 in series [2] of less than 4.00.
In series [2], “Ac-ATAEETRRMLARAFDTLA-NH2 (N-terminus and C-terminus assumed) [Peptide H29A]” had a pIC50 of less than 4.00. The “% Helicity” value in series [1] is 25%.
In series [2], “Ac-ATAEETRRMLHAAFDTLA-NH2 (N-terminus and C-terminus assumed) [Peptide R30A]” gave a pIC50 of less than 4.00. Besides, the “% Helicity” value in series [1] is listed as 26%.
